According to US9464064B2, “HCV helicase inhibitors and methods of use thereof” (University of Kansas, priority 2011, dated 2016):
Where “and” joins values, the source holds several entries; their conditions need not be identical. Equal values may be shown once. Read-outs that look alike come from different tables or passages of the source.

How the values were obtained:
[1] = test system: Huh-7.5 cells; assay: Cell viability assay ([…]-GLO); assay type: cell-based, human; conditions: for Cell viability (% viable): 10 μM compound, triplicate, average ± SD
How it was run: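 Huh-7.5 cells exposed to compound for 72 hours, washed, then lysed in a 1:1 mix of growth medium and […]-GLO reagent. After 30 minutes at 23° C., luminescence was read for 1 second as a measure of viability.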

[2] = target: T1, E. coli SSB-Cy5-dT15 complex (Escherichia coli, UniProt P0AGE0); assay: Escherichia coli SSB Cy5-dT15 binding assay (fluorescence polarization); conditions: for IC50: disruption of Cy5-dT15-SSB complex, read-out: Cy5-dT15-SSB Binding IC50; for inhibition at 100 µM: read-out: SSB % Displaced @ 100 μM; for EC50: read-out: SSB EC50
T1 construct: purchased Promega
T1 sequence (P0AGE0 2-178, one chain of several): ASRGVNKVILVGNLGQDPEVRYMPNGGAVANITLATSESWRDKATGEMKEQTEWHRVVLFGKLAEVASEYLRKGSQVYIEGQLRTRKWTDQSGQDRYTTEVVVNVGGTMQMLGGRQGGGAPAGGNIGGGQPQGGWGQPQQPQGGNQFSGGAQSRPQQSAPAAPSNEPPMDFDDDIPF
How it was run: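 Fluorescence polarization with 5 nM Cy5-dT15 and 20 nM E. coli SSB in 25 mM MOPS pH 7.5, 1.25 mM MgCl2, BSA, Tween 20, DTT. Screening at 1% DMSO; IC50 runs at 5% DMSO. Excitation 635 nm, parallel and perpendicular emission at 667 nm.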

[3] = target: T2, NS3h_2a(JFH1) (Hepatitis C virus genotype 2a, UniProt Q99IB8); assay: MBHA, DNA substrate, genotype 2a helicase; assay type: biochemical, hepatitis C virus genotype 2a(JFH1)
T2 construct: truncated C-terminally His-tagged NS3 proteins lacking the N-terminal protease, called NS3h; His-tag (C); made in house
T2 sequence (Q99IB8 1196-1661): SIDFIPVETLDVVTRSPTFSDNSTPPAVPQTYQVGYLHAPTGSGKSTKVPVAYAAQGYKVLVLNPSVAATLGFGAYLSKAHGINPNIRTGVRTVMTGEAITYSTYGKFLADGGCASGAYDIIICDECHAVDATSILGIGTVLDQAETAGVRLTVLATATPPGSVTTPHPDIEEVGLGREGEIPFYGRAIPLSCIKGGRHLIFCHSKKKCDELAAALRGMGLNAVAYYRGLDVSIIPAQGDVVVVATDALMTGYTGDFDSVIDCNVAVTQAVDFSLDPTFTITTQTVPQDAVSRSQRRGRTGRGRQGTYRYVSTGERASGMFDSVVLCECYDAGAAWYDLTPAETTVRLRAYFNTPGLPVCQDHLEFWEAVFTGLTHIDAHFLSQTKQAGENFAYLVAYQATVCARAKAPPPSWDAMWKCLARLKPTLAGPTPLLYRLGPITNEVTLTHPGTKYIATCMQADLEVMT
Method: All oligonucleotides were purchased from Integrated DNA Technologies (IDT, Coralville, Iowa). Primuline derivatives were synthesized and purified as described herein. Three different NS3 proteins were used in this study. Two were truncated C-terminally His-tagged NS3 proteins lacking the N-terminal protease, called NS3h, the third was a full-length NS3 with the portion of NS4A needed for protease activation fused to its N-terminus, called scNS4A-NS3 (Howe, et al. (1999) Protein Sci. 8:1332-41), and the fourth was a 23 kDa scNS4A-NS3 protease fragment lacking the helicase domains, called scNS4A-NS3p (Protein One, Rockville, Md.). NS3h was expressed from two different HCV strains. NS3h_1b(con1) was from the con1 strain of genotype 1b (GENBANK accession AB114136), and NS3h_2a(JFH1) was from the JFH1 strain of HCV genotype 2a (GENBANK accession AJ238799). […] His-tagged recombinant NS3h_1b(con1), NS3h_2a(JFH1), and scNS4A-NS3 (also from genotype 1b(con1)) were expressed, and purified as previously described (Frick, et al. (2010) supra; Lam, et al. (2003) J. Virol. 77:3950-3961). The scNS4A-NS3p (genotype 1b) was from Protein One. A plasmid expressing NS3h from dengue virus strain 2 (NS3h_DV2)(GENBANK accession 2BMF) is known in the art (Xu, et al. (2005) J. Virol. 79:10278-10288), and used to express and purify NS3h_DV2 (Belon, et al. (2010) supra)
Compounds that specifically target less conserved regions of a HCV protein are often not potent inhibitors of the same protein derived from other genotypes, and they might be susceptible to rapid evolution of related viruses. As described herein, primuline derivatives can inhibit HCV helicase isolated from the genotype 1b(con1) strain. Therefore to further analyze specificity, the subset of primuline analogs was tested on the helicase isolated from the genotype 2a(JFH1) strain. The two recombinant proteins differ at 83 of their 480 amino acids. The JHF1 strain is also of interest because it serves as the backbone for HCV strains capable of replicating in cell culture (Wakita, et al. (2005) Nat. Med. 11:791-796). The molecular beacon-based helicase assay (MBHA) (Belon & Frick (2008) supra) was used to measure the ability of each compound to inhibit DNA unwinding catalyzed by NS3h isolated from genotype 2a(JFH1) (NS3h_2a(JFH1)). […] Selected compounds were also tested for the ability to inhibit helicase reactions catalyzed by full-length NS3 and a single chain NS4A-NS3 protein (scNS4A-NS3) described below and used for protease assays.

[4] = genotype 2a (JFH1), read-out: Target Potency MBHA (IC50 avg., μM) 2a (JFH1) (converted)
[5] = DNA-based MBHA, genotype 2a(JFH1), read-out: DNA Helicase NS3h_2a IC50 (μM) ± SD

| SMILES | Cell Viability (% @ 10 μM) [1] | Cell viability (% viable) [1] | IC50 [2] | inhibition at 100 µM [2] | EC50 [2] | IC50 [3, 4] | IC50 [3, 5] |
| --- | --- | --- | --- | --- | --- | --- | --- |
| Cc1ccc(NC(=O)Nc2ccc(-c3nc4ccc(-c5nc6ccc(C)c(S(=O)(=O)O)c6s5)cc4s3)cc2)cc1 [Compound 28, 6-methyl-2′-(4-(3-(p-tolyl)ureido)phenyl)-[2,6′-bibenzo[d]thiazole]-7-sulfonic acid] | 93 ± 1% | 93 ± 1% | 10 ± 3 µM | 96% | 10 µM | 4 µM | – |
| COc1ccc(S(=O)(=O)Nc2ccc(-c3nc4ccc(-c5nc6ccc(C)c(S(=O)(=O)O)c6s5)cc4s3)cc2)cc1 [Compound 29, 2′-(4-(4-methoxyphenylsulfonamido)phenyl)-6-methyl-[2,6′-bibenzo[d]thiazole]-7-sulfonic acid] | 75 ± 3% | 75 ± 3% | 10 ± 2 µM | 98% | 10 µM | 13.4 µM | – |
| CC(=O)Nc1ccc(-c2nc3ccc(-c4nc5ccc(C)c(S(=O)(=O)O)c5s4)cc3s2)cc1 [Compound 30, 2′-(4-acetamidophenyl)-6-methyl-[2,6′-bibenzo[d]thiazole]-7-sulfonic acid] | 102 ± 9% | 100 ± 6% | 17 ± 4 µM | 89% | 17 µM | > 100 µM | – |
| Cc1ccc2nc(-c3ccc4nc(-c5ccc(NC(=O)c6cccnc6)cc5)sc4c3)sc2c1S(=O)(=O)O [Compound 31, 6-methyl-2′-(4-(nicotinamido)phenyl)-[2,6′-bibenzo[d]thiazole]-7-sulfonic acid] | 113 ± 6% | 113 ± 6% | 173 ± 354 µM | 48% | > 100 µM | 48 µM | – |
| Cc1ccc2nc(-c3ccc4nc(-c5ccc(NC(=O)c6ccncc6)cc5)sc4c3)sc2c1S(=O)(=O)O [Compound 32, 2′-(4-(isonicotinamido)phenyl)-6-methyl-[2,6′-bibenzo[d]thiazole]-7-sulfonic acid] | 117 ± 5% | 117 ± 5% | 55 ± 20 µM | 63% | 55 µM | 52 ± 25 µM | – |
| Cc1ccc2nc(-c3ccc4nc(-c5ccc(NC(=O)c6ccc7ccccc7c6)cc5)sc4c3)sc2c1S(=O)(=O)O [Compound 33, 2′-(4-(2-naphthamido)phenyl)-6-methyl-[2,6′-bibenzo[d]thiazole]-7-sulfonic acid] | 99 ± 11% | – | 28 ± 9 µM | 78% | 28 µM | 4.4 µM | 2 ± 0.6 µM |
| Cc1ccc2nc(-c3ccc4nc(-c5ccc(N(C)C(=O)c6ccc7ccccc7c6)cc5)sc4c3)sc2c1S(=O)(=O)O [Compound 34, 6-methyl-2′-(4-(N-methyl-2-naphthamido)phenyl)-[2,6′-bibenzo[d]thiazole]-7-sulfonic acid] | 101 ± 9% | – | 9 ± 2 µM | 105% | 9 µM | 13.5 µM | – |
| Cc1ccc2nc(-c3ccc4nc(-c5ccc(NC(=O)c6ccc7nc(-c8ccc(N)cc8)sc7c6)cc5)sc4c3)sc2c1S(=O)(=O)O [Compound 35, 2′-(4-(2-(4-aminophenyl)benzo[d]thiazole-6-carboxamido)phenyl)-6-methyl-[2,6′-bibenzo[d]thiazole]-7-sulfonic acid] | 85 ± 2% | 85 ± 2% | 3 ± 1 µM | 95% | – | 3.5 µM | 3 ± 1.2 µM |
| Cc1ccc2nc(-c3ccc4nc(-c5ccc(NC(=O)c6ccc7nc(-c8ccc(NC(=O)OCC9c%10ccccc%10-c%10ccccc%109)cc8)sc7c6)cc5)sc4c3)sc2c1S(=O)(=O)O.N [Compound 36] | 95 ± 3% and 90 ± 4% | 90 ± 4% | 5 ± 1 µM | 95% | 5 µM | 1.9 µM | – |
| Cc1ccc2nc(-c3ccc(NC(=O)c4ccc(NC(=O)c5ccccc5)cc4)cc3)sc2c1S(=O)(=O)O.N [Compound 40] | 115 ± 3% | – | 57 ± 13 µM | 84% | 57 µM | 79.2 µM | – |
| Cc1ccc2nc(-c3ccc4nc(-c5ccc(NC(=O)c6ccc(CNC(=O)OCC7c8ccccc8-c8ccccc87)cc6)cc5)sc4c3)sc2c1S(=O)(=O)O.N [Compound 41] | 102 ± 6% | – | 57 ± 16 µM | 59% | 57 µM | 4.6 µM | – |
| Cc1ccc2nc(-c3ccc(NC(=O)c4ccc(NC(=O)OCC5c6ccccc6-c6ccccc65)cc4)cc3)sc2c1S(=O)(=O)O.N [Compound 42] | 108 ± 2% | – | 27 ± 5 µM | 93% | 27 µM | 12 µM | – |
| Cc1ccc2nc(-c3ccc(NC(=O)c4ccc(NC(=S)Nc5ccccc5)cc4)cc3)sc2c1S(=O)(=O)O.N [Compound 43] | 106 ± 3% | – | 23 ± 5 µM | 93% | 23 µM | 29 µM | – |
| Cc1ccc2nc(-c3ccc(NC(=O)c4ccc(NC(=O)c5ccc(C(F)(F)F)cc5)cc4)cc3)sc2c1S(=O)(=O)O.N [Compound 44] | 97 ± 7% | – | 23 ± 6 µM | 86% | 23 µM | 14.7 µM | – |
| Cc1ccc2nc(-c3ccc(NC(=O)c4ccc(NC(=O)Nc5ccccc5)cc4)cc3)sc2c1S(=O)(=O)O.N [Compound 45] | 113 ± 4% | – | 20 ± 4 µM | 96% | 20 µM | 32 µM | – |
| Cc1ccc2nc(-c3ccc(NC(=O)c4ccc(NC(=O)c5ccc(N)cc5)cc4)cc3)sc2c1S(=O)(=O)O.N [Compound 46] | 112 ± 5% | – | 17 ± 5 µM | 94% | 17 µM | 26 µM | – |
| Cc1ccc2nc(-c3ccc4nc(-c5ccc(NC(=O)Nc6ccc(C(F)(F)F)cc6)cc5)sc4c3)sc2c1S(=O)(=O)O.N [Compound 47] | 99 ± 7% | – | 15 ± 3 µM | 91% | 15 µM | 4 µM | – |
| Cc1ccc2nc(-c3ccc4nc(-c5ccc(NC(=O)Nc6ccc(F)cc6)cc5)sc4c3)sc2c1S(=O)(=O)O.N [Compound 48] | 93 ± 2% | – | 11 ± 2 µM | 100% | 11 µM | 9.9 µM | – |
| Cc1ccc2nc(-c3ccc4nc(-c5ccc(NC(=O)c6cccc7ccccc67)cc5)sc4c3)sc2c1S(=O)(=O)O.N [Compound 49] | 103 ± 5% | – | 9 ± 2 µM | 94% | 9 µM | 3.9 µM | – |
| Cc1ccc2nc(-c3ccc4nc(-c5ccc(NC(=S)Nc6ccccc6)cc5)sc4c3)sc2c1S(=O)(=O)O.N [Compound 50] | 98 ± 10% | – | 7 ± 1 µM | 98% | 7 µM | 9.6 µM | – |
| Cc1ccc2nc(-c3ccc(NC(=O)c4ccc(NC(=O)c5ccc(NC(=O)OCC6c7ccccc7-c7ccccc76)cc5)cc4)cc3)sc2c1S(=O)(=O)O.N [Compound 51] | 113 ± 5% | – | 7 ± 3 µM | – | 7 µM | 1.9 µM | – |
